These results are taken from US8791267B2, “Biaryl PDE4 inhibitors for treating inflammatory, cardiovascular and CNS disorders” (Decode Genetics EHF, priority 2007, dated 2014).

Structures can show the parent of a compound that is named as a salt. Where only a bound is given, the exact number is not on record here.

One assay deals with PDE4B (Homo sapiens, UniProt Q07343). The assay can be described thus: In-vitro assay for PDE4 enzymes, real-time enzyme-coupled spectrophotometric assay, PDE4B Activity (Table 10). The assay is classed as biochemical. As to conditions: human PDE4B (hPDE4B), enzyme-coupled spectrophotometric assay; read-out: PDE4B Activity, hPDE4B.
The next assay concerns the target PDE4 (Homo sapiens, UniProt Q08499). Briefly: In-vitro assay for PDE4 enzymes, real-time enzyme-coupled spectrophotometric assay (Table 9). The assay is classed as biochemical. As to conditions: human PDE4D; activity class, Table 9; read-out: hPDE4D.

PDE4B, sequence (Q07343 whole entry): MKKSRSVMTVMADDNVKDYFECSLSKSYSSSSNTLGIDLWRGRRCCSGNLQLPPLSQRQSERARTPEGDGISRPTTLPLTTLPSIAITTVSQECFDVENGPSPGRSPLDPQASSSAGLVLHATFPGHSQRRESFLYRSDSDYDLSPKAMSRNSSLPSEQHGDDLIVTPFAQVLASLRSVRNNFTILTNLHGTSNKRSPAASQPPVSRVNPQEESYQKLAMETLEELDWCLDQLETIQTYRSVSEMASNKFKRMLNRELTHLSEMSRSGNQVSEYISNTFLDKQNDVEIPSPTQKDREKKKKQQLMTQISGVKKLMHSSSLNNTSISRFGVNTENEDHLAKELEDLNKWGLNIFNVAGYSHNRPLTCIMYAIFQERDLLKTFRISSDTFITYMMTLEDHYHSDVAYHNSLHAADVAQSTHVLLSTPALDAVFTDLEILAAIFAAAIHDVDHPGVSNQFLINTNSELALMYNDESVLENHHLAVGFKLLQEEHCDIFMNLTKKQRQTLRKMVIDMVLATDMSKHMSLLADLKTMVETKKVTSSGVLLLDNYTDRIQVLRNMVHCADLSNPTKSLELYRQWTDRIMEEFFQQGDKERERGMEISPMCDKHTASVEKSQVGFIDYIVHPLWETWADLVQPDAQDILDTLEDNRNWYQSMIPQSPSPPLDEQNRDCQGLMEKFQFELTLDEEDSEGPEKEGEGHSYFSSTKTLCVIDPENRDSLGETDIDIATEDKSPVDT
PDE4, sequence (Q08499 whole entry): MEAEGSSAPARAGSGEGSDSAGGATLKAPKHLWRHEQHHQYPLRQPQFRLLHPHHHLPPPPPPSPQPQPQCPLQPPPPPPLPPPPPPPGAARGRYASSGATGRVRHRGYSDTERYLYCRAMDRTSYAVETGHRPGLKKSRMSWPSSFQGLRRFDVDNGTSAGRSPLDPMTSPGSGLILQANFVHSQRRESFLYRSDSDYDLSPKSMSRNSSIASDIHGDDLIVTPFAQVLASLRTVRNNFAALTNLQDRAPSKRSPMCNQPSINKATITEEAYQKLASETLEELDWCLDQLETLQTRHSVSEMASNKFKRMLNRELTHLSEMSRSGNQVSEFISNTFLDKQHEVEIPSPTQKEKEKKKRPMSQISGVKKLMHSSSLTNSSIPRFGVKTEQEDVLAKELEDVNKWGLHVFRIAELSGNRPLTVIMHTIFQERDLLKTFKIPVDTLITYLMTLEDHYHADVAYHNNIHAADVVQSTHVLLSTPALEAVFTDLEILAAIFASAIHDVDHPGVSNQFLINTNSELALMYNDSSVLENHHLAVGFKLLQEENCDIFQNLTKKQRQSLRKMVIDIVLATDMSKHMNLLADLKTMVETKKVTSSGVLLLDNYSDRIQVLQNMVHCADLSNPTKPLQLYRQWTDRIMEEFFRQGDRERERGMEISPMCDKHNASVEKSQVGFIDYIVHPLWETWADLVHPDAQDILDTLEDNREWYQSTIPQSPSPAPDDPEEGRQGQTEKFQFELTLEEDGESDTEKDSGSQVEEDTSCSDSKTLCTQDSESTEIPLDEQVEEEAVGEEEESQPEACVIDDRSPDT

With `COc1c(F)cc(Cc2ccc(NC(N)=O)cc2)cc1-c1cccc(Cl)c1` [P-550, [4-(3′-chloro-5-fluoro-6-methoxy-biphenyl-3-ylmethyl)-phenyl]-urea], the IC50 at PDE4B and at PDE4 was < 5 µM each time.
Regarding `COc1ccc(Cc2ccc(F)cc2)cc1-c1cccc([N+](=O)[O-])c1` [P-001, 5-(4-Fluoro-benzyl)-2-methoxy-3′-nitro-biphenyl], the IC50 at PDE4B and on PDE4 was < 5 µM each time.
As for `COc1ccc(Cc2ccc(NC(C)=O)nc2)c(F)c1-c1cccc(C(C)=O)c1` [P-345], the IC50 on PDE4B and on PDE4 was < 5 µM in each case.
`COc1ccc(Cc2ccc(Nc3nccn3C)cc2)cc1-c1cccc(Cl)c1` [P-467, [4-(3′-Chloro-6-methoxy-biphenyl-3-ylmethyl)-phenyl]-(1-methyl-1H-imidazol-2-yl)-amine]: the IC50 on PDE4B and at PDE4 was < 5 µM in each case.
In the case of `COc1ccc(Cc2ccc3nc(N)oc3c2)c(F)c1-c1cccc(Cl)c1` [P-285], the IC50 at PDE4B is 5 to 20 µM; at PDE4, < 5 µM.
The matching figures for `COc1ccc(COc2ccnc(Cl)c2)cc1-c1cccc(Cl)c1` [P-603]: < 5 µM and < 5 µM.
`COc1ccc(Cc2ccc(N3CCNC3=O)nc2)c(F)c1-c1cccc(Cl)c1` [P-388, 1-[5-(3′-Chloro-2-fluoro-6-methoxy-biphenyl-3-ylmethyl)-pyridin-2-yl]-imidazolidin-2-one]: the IC50 at PDE4B and at PDE4 was < 5 µM each time.
In the case of `COc1ccc(Cn2cncn2)cc1-c1ccc2nonc2c1` [P-481, 5-(2-Methoxy-5-[1,2,4]triazol-1-ylmethyl-phenyl)-benzo[1,2,5]oxadiazole], the results for the IC50 on PDE4B and on PDE4 were 5 to 20 µM and < 5 µM, respectively.
With `COc1ccc(Cc2ccc(Cl)nc2)c(O)c1-c1cccc([N+](=O)[O-])c1` [P-126], the IC50 at PDE4B and at PDE4 was < 5 µM throughout.
Take `COc1ccc(Cc2ccc(F)c(CO)c2)cc1-c1cccc([N+](=O)[O-])c1` [P-135]: the IC50 on PDE4B and at PDE4 was < 5 µM each time.
As for `COc1ccc(Cc2ccc(NCC(N)=O)nc2)c(F)c1-c1cccc(Cl)c1` [P-471], the IC50 on PDE4B and on PDE4 was < 5 µM each time.
In the case of `COc1ccc(CN2CC[C@H](O)C2)cc1-c1cccc([N+](=O)[O-])c1` [P-070, (S)-1-(6-Methoxy-3′-nitro-biphenyl-3-ylmethyl)-pyrrolidin-3-ol], the IC50 on PDE4B is 21 to 40 µM; on PDE4, < 5 µM.
The matching figures for `NC(=O)Nc1ccc(Cc2ccc(OC(F)F)c(-c3cccc(Cl)c3)c2)cc1` [P-420]: < 5 µM and < 5 µM.
The matching figures for `CC(=O)Nc1ccc(Cc2ccc(O)c(-c3cccc(Br)c3)c2F)cc1` [P-620]: 21 to 40 µM and < 5 µM.
The matching figures for `COc1ccc(Nc2ccc(N)cc2)cc1-c1cccc(Cl)c1` [P-280, N-(3′-Chloro-6-methoxy-biphenyl-3-yl)-benzene-1,4-diamine; hydrochloride]: < 5 µM and < 5 µM.
Consider `COc1ccc(Cc2c(C)nn(CCO)c2C)cc1-c1cccc([N+](=O)[O-])c1` [P-088, 2-[4-(6-Methoxy-3′-nitro-biphenyl-3-ylmethyl)-3,5-dimethyl-pyrazol-1-yl]-ethanol], for which the IC50 on PDE4B and at PDE4 was < 5 µM each time.
With `O=[N+]([O-])c1cccc(-c2cc(Cc3ccc(F)cc3)ccc2OC(F)F)c1` [P-067, 2-Difluoromethoxy-5-(4-fluoro-benzyl)-3′-nitro-biphenyl], the IC50 at PDE4B and on PDE4 was < 5 µM in each case.
In the case of `[2H]C(O)(c1ccc([N+](=O)[O-])cc1)c1ccc(OC)c(-c2cccc(Cl)c2)c1` (centres unmarked) [P-583], the results for the IC50 at PDE4B and at PDE4 were 5 to 20 µM and < 5 µM, respectively.
Taken in the same sequence, the figures for `COc1ccc(Cc2ccc(CNC(N)=O)c(O)c2)c(F)c1-c1cccc(Cl)c1` [P-301] were < 5 µM and < 5 µM.
Taken in the same sequence, the figures for `COc1ccc(Cn2ccccc2=O)cc1-c1cccc([N+](=O)[O-])c1` [P-104, 1-(6-Methoxy-3′-nitro-biphenyl-3-ylmethyl)-1H-pyridin-2-one] were < 5 µM and < 5 µM.
`CNc1ccc(Cc2ccc(OC)c(-c3cccc(Cl)c3)c2F)cc1` [P-311, [4-(3′-Chloro-2-fluoro-6-methoxy-biphenyl-3-ylmethyl)-phenyl]-methyl-amine]: the IC50 at PDE4B and at PDE4 was < 5 µM in each case.
With `COc1ccc(Cc2ccc(F)cc2)cc1-c1cccc(-c2nnco2)c1` [P-118, 2-[5′-(4-Fluoro-benzyl)-2′-methoxy-biphenyl-3-yl]-[1,3,4]oxadiazole], the IC50 at PDE4B and at PDE4 was < 5 µM in each case.
Take `COc1ccc(COc2ccc([N+](=O)[O-])cc2)c(F)c1-c1cccc(Cl)c1` [P-575]: the IC50 at PDE4B is < 5 µM; on PDE4, 5 to 20 µM.
Taken in the same sequence, the figures for `NC(=O)Nc1ccc(Cc2ccc(OC(F)F)c(-c3cccc(Br)c3)c2F)cc1` [P-323] were < 5 µM and < 5 µM.
As to `COc1ccc(C[S+]([O-])c2ccc(F)cc2)cc1-c1cccc([N+](=O)[O-])c1` (centres unmarked) [P-192, 5-(4-Fluoro-benzenesulfinylmethyl)-2-methoxy-3′-nitro-biphenyl], the IC50 on PDE4B and at PDE4 was 5 to 20 µM throughout.
In the case of `COc1ccc(Cn2cncc2C(N)=O)c(F)c1-c1cccc(Cl)c1` [P-535, 3-(3′-Chloro-2-fluoro-6-methoxy-biphenyl-3-ylmethyl)-3H-imidazole-4-carboxylic acid amide], the IC50 on PDE4B and at PDE4 was < 5 µM in each case.
As for `COc1ccc(Cc2ccc(NS(C)(=O)=O)nc2)c(F)c1-c1cccc(C(C)=O)c1` [P-297], the IC50 on PDE4B was 5 to 20 µM; at PDE4, < 5 µM.
Taken in the same sequence, the figures for `CCOc1ccc(Cc2ccc(NC(N)=O)nc2)c(F)c1-c1cccc(Cl)c1` [P-279] were < 5 µM and < 5 µM.
Turning to `COc1ccc(Cc2nnc(N)s2)c(F)c1-c1cccc(Cl)c1` [P-333, 5-(3′-Chloro-2-fluoro-6-methoxy-biphenyl-3-ylmethyl)-[1,3,4]thiadiazol-2-ylamine], the IC50 on PDE4B and on PDE4 was < 5 µM each time.
For `COc1ccc(Cn2c(N)cccc2=O)cc1-c1cccc([N+](=O)[O-])c1` [P-236, 6-Amino-1-(6-methoxy-3′-nitro-biphenyl-3-ylmethyl)-1H-pyridin-2-one], the IC50 is 21 to 40 µM at PDE4B and 20 to 40 µM on PDE4.
`COc1ccc(Cc2ccc(F)nc2)c(F)c1-c1cccc(Cl)c1` [P-456, 5-(3′Chloro-2-fluoro-6-methoxy-biphenyl-3-ylmethyl)-2-fluoro-pyridine]: the IC50 at PDE4B and on PDE4 was < 5 µM in each case.
As to `COc1ccc(Cc2ccc(CNC(=O)N(C)C)nc2)c(F)c1-c1cccc(Cl)c1` [P-371, 3-[5-(3′-Chloro-2-fluoro-6-methoxy-biphenyl-3-ylmethyl)-pyridin-2-ylmethyl]-1,1-dimethyl-urea hydrochloride], the IC50 on PDE4B and at PDE4 was < 5 µM throughout.
As to `COc1ccc(Cc2cnc(N)s2)c(F)c1-c1cccc(Cl)c1` [P-369, 5-(3′-Chloro-2-fluoro-6-methoxy-biphenyl-3-ylmethyl)-thiazol-2-ylamine], the IC50 on PDE4B and at PDE4 was < 5 µM throughout.
With `O=[N+]([O-])c1cccc(-c2cc(Cc3ccc(F)cc3)ccc2O)c1` [P-494, 5-(4-Fluoro-benzyl)-3′-nitro-biphenyl-2-ol], the IC50 at PDE4B and on PDE4 was < 5 µM each time.
`COc1ccc(Cc2ccc(NCCO)nc2)c(F)c1-c1cccc(Cl)c1` [P-411]: the IC50 on PDE4B and at PDE4 was < 5 µM each time.
As to `COc1ccc(Cn2nc3ccccn3c2=O)cc1-c1cccc([N+](=O)[O-])c1` [P-047, 2-(6-Methoxy-3′-nitro-biphenyl-3-ylmethyl)-2H-[1,2,4]triazolo[4,3-a]pyridin-3-one], the IC50 is < 5 µM at PDE4B and 5 to 20 µM on PDE4.
With `COc1ccc(Cc2ccc(=O)[nH]n2)cc1-c1ccc2nonc2c1` [P-012, 6-(3-Benzo[1,2,5]oxadiazol-5-yl-4-methoxy-benzyl)-2H-pyridazin-3-one], the IC50 at PDE4B and on PDE4 was 5 to 20 µM throughout.
For the compound `CN1CC[C@@H](Oc2ccc(Cc3ccc(NC(N)=O)cc3)cc2-c2cccc(Cl)c2)C1` [P-565, {4-[3′-Chloro-6-((R)-1-methyl-pyrrolidin-3-yloxy)-biphenyl-3-ylmethyl]-phenyl}-urea], the IC50 is 21 to 40 µM at PDE4B and 5 to 20 µM on PDE4.
`CCNc1ccc(Cc2ccc(OC)c(-c3cccc(C(C)=O)c3)c2F)cn1` [P-339]: the IC50 at PDE4B and at PDE4 was < 5 µM each time.
On to `COc1ccc(Cc2ccc(OC)c(-c3cccc([N+](=O)[O-])c3)c2O)cn1` [P-125], for which the IC50 on PDE4B and on PDE4 was < 5 µM in each case.
With `COc1ccc(Cc2ccc(N)nc2)nc1-c1cccc(Cl)c1` [P-379, 5-[6-(3-chloro-phenyl)-5-methoxy-pyridin-2-ylmethyl]-pyridin-2-ylamine], the IC50 on PDE4B and on PDE4 was < 5 µM each time.
As for `COc1ccc(Cc2cccc(N)c2)c(F)c1-c1cccc(Cl)c1` [P-234], the IC50 at PDE4B and at PDE4 was < 5 µM each time.
Consider `COc1ccc(Cc2ccc(N)c(O)c2)c(F)c1-c1cccc(Cl)c1` [P-256], for which the IC50 at PDE4B was 5 to 20 µM; at PDE4, < 5 µM.
The matching figures for `COc1ccc(Cc2cnc(N)nc2)c(F)c1-c1cccc(Cl)c1` [P-278]: < 5 µM and < 5 µM.
In the case of `COc1ccc(CN2CC[C@@H](O)C2)cc1-c1cccc([N+](=O)[O-])c1` [P-071, (R)-1-(6-Methoxy-3′-nitro-biphenyl-3-ylmethyl)-pyrrolidin-3-01], the values for the IC50 on PDE4B and on PDE4 were 21 to 40 µM and < 5 µM, respectively.
The matching figures for `COc1ccc(Cc2ccc(NC(C)=O)cc2)c(F)c1-c1cccc(Cl)c1` [P-228]: < 5 µM and < 5 µM.
